Laboratory results taken from patent US20120252855A1, “Methods For Treating Degenerative Diseases/Injuries” (priority 2003, published 2012).

Experiments:
[1] = tested on: early CD34+ progenitor cells from human bone marrow; experiment: CD34+ Progenitor Cell Proliferation Assay; type: cell-based
Experimental: Compounds are tested for their ability in stimulating the survival and proliferation of early CD34+ progenitor cells from human bone marrow. In this assay, purified human CD34+ progenitor cells are incubated in liquid culture with test compounds for up to 7 days and the number of cells expressing the early stem cell marker CD34 are then measured by flow cytometry and compared to untreated cells (see Liu et al. Bone Marrow Transplantation. 24:247-52, 1999).

[2] = tested on: Human marrow progenitor CD34+ cells; experiment: CD34+ Progenitor Cell Proliferation Assay Experiment 2; type: cell-based
Experimental: Human marrow progenitor CD34+ cells were washed in SFEM, counted and brought to 2×10^5/mL in 24-well plates and incubated for 7 days in the presence of compound or rhTpo. Dilutions of 3′-{N′-[1-(3,4-Dimethylphenyl)-3-methyl-5-oxo-1,5-dihydropyrazol-4-ylidene]hydrazino}-2′-hydroxybiphenyl-3-carboxylic acid bis-(monoethanolamine) were made in distilled water to equal 0, 0.3, 1 and 3 uM final concentration. Dilutions of 3-{N′-[1-(3,4-dimethylphenyl)-3-methyl-5-oxo-1,5-dihydropyrazol-4-ylidene]hydrazino}-2-hydroxy-3′-tetrazol-5-ylbiphenyl disodium salt were made in DMSO to equal 0, 0.3, 1 and 3 uM final concentration in 0.1% DMSO. Recombinant human TPO at a final concentration of 100 ng/mL was used as a positive control. At day 7, cells were counted and flow cytometry was performed using FITC-CD34.

## CC1=NN(c2ccc(C(F)(F)F)cc2)C(=O)C1=NNc1cccc(-c2cccc(C(=O)O)c2)c1O [3′-{N′-[3-methyl-5-oxo-1-(4-trifluoromethylphenyl)-1,5-dihydropyrazol-4-ylidene]hydrazino}-2′-hydroxybiphenyl-3-carboxylic acid]
[1]; compound at 3 uM, days 2, 5 and 7, flow cytometry
  increase in the number of CD34+ cells in liquid culture over vehicle controls: up to 2 fold

## rhTpo: Recombinant human TPO, used as a positive control at 100 ng/mL
[1]; rhTpo 100 ng/ml, same experiment as E1
  increase in the number of CD34+ cells: 2 fold
[2]; rhTpo 100 ng/ml positive control, experiment with the bis-(monoethanolamine) salt, day 7
  increase in the number of CD34+ cells: 15 fold
[2]; rhTpo 100 ng/ml positive control, experiment with the tetrazole disodium salt, day 7
  increase in the number of CD34+ cells: 3.4 fold

## CC1=NN(c2ccc(C)c(C)c2)C(=O)C1=NNc1cccc(-c2cccc(C(=O)O)c2)c1O.NCCO.NCCO [3′-{N′-[1-(3,4-Dimethylphenyl)-3-methyl-5-oxo-1,5-dihydropyrazol-4-ylidene]hydrazino}-2′-hydroxybiphenyl-3-carboxylic acid bis-(monoethanolamine)]
[2]; compound at 3 uM, dilutions in distilled water, 7 days, FITC-CD34 flow cytometry
  increase in the number of CD34+ cells: 3 fold

## CC1=NN(c2ccc(C)c(C)c2)C(=O)C1=NNc1cccc(-c2cccc(-c3nnn[nH]3)c2)c1O.[Na].[Na] [3-{N′-[1-(3,4-dimethylphenyl)-3-methyl-5-oxo-1,5-dihydropyrazol-4-ylidene]hydrazino}-2-hydroxy-3′-tetrazol-5-ylbiphenyl disodium salt]
[2]; compound at 3 uM in 0.1% DMSO, 7 days, FITC-CD34 flow cytometry
  increase in the number of CD34+ cells: 3.6 fold
